Literature values in patent US20220175776A1, “COMBINATION OF CHIR99021 AND VALPROIC ACID FOR TREATING HEARING LOSS” (Frequency Therapeutics, Inc., priority 2019, published 2022).
pIC50: −log10 of the molar value.

Key:
[1] = target: gamma secretase; conditions: SH-SY5Y cells; read-out: Lit cell conc, IC50; cited from earlier work
[2] = target: HER 2 (Homo sapiens, UniProt P04626); conditions: Table 13; cited from earlier work
[3] = target: HER 4 (Homo sapiens, UniProt Q15303); conditions: Table 13; cited from earlier work
Sequence of HER 4 (Q15303 26-1308): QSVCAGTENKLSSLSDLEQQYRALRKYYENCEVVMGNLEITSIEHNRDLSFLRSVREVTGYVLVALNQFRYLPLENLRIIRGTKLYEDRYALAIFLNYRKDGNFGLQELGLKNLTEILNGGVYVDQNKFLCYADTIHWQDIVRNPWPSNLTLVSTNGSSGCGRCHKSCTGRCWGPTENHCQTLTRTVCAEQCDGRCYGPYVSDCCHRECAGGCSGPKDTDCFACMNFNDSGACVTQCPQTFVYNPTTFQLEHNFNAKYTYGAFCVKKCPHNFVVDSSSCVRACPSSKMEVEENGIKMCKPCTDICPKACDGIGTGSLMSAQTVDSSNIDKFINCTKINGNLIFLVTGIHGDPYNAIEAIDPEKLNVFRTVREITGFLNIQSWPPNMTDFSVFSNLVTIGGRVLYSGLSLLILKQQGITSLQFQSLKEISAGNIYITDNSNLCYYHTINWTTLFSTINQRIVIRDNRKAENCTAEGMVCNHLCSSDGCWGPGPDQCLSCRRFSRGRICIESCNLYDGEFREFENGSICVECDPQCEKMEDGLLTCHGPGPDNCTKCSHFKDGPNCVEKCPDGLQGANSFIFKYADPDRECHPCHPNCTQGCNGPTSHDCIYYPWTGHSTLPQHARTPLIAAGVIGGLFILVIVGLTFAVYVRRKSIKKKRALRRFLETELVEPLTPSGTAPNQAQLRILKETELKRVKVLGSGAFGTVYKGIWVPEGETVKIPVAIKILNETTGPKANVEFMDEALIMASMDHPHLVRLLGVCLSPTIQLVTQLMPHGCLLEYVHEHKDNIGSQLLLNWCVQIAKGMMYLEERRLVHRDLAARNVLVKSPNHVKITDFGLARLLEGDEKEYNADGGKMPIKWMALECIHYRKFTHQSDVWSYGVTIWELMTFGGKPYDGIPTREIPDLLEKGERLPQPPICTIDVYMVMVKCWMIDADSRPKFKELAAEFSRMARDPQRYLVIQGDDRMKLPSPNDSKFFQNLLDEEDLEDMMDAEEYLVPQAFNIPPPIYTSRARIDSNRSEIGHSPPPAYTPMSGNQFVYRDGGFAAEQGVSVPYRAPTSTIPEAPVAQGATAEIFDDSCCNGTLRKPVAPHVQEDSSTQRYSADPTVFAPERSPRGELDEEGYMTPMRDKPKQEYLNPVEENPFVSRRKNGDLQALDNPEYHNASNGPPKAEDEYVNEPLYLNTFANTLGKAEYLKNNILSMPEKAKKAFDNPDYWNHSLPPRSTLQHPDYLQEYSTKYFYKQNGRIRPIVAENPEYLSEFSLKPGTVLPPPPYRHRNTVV

Sequence of HER 2 (P04626 23-1255): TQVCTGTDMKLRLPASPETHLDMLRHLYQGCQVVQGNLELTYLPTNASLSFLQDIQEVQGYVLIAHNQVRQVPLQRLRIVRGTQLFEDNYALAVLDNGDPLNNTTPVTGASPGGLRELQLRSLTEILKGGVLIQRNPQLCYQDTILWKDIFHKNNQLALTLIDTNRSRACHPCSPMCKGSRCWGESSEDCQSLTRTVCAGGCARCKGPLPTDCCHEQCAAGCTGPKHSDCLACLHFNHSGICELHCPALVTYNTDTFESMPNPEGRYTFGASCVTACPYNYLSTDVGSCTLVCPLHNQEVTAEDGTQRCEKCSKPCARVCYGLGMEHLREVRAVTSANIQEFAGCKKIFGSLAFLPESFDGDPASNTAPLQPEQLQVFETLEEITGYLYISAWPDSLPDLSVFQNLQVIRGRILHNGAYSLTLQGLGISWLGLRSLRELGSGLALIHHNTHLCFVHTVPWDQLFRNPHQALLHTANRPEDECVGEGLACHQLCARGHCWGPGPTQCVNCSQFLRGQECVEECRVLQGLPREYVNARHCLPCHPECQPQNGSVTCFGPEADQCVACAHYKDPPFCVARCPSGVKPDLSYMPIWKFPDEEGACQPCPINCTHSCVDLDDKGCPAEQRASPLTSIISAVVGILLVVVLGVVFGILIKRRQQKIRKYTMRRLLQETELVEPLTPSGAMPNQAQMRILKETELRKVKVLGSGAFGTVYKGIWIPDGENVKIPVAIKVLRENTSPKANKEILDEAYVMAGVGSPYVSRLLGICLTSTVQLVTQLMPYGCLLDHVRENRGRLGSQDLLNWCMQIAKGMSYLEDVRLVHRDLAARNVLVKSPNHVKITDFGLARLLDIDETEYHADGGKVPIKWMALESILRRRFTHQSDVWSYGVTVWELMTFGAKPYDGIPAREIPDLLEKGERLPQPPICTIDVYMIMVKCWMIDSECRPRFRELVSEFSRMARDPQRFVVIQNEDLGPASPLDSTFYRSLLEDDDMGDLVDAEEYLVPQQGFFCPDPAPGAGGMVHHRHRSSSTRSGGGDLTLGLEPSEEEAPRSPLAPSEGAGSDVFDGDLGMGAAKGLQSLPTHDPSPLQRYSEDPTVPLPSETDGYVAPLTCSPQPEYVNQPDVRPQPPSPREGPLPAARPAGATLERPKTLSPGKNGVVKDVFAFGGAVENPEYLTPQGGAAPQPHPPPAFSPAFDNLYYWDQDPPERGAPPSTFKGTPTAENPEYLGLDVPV

Structure (SMILES)	pIC50 [1]	pIC50 [2]	pIC50 [3]
O=C(O)CCC1CCC(c2cc(F)ccc2F)(S(=O)(=O)c2ccc(Cl)cc2)CC1 (stereo not drawn) [MK-0572]	8.30		
C=CC(=O)N1CCC(Oc2cc3c(Nc4ccc(Cl)c(Cl)c4F)ncnc3cc2OC)CC1 [poziotinib]		8.30	7.64
